Molecular target: T1, human S1P1 receptor (Homo sapiens, UniProt P21453)
T1 construct: expressed in transfected cells; membranes were used
Assay: GTP γ35S binding assay for S1P1 activity
Format: biochemical
Details: membranes of cells stably expressing the S1P1 receptor, agonist potency
Experimental: Compounds were synthesized and tested for S1P1 activity using the GTP γ^35S binding assay. These compounds may be assessed for their ability to activate or block activation of the human S1P1 receptor in cells stably expressing the S1P1 receptor.
GTP γ^355 binding was measured in the medium containing (mM) HEPES 25, pH 7.4, MgCl2 10, NaCl 100, dithiothreitol 0.5, digitonin 0.003%, 0.2 nM GTP γ^35 S, and 5 μg membrane protein in a volume of 150 μl. Test compounds were included in the concentration range from 0.08 to 5,000 nM unless indicated otherwise. Membranes were incubated with 100 μM 5′ adenylylimidodiphosphate for 30 min, and subsequently with 10 μM GDP for 10 min on ice. Drug solutions and membrane were mixed, and then reactions were initiated by adding GTP γ^35S and continued for 30 min at 25° C. Reaction mixtures were filtered over Whatman GF/B filters under vacuum, and washed three times with 3 mL of ice-cold buffer (HEPES 25, pH7.4, MgCl2 10 and NaCl 100). Filters were dried and mixed with scintillant, and counted for ^35S activity using a β-counter. Agonist-induced GTP γ^35S binding was obtained by subtracting that in the absence of agonist. Binding data were analyzed using a non-linear regression method. In case of antagonist assay, the reaction mixture contained 10 nM S1P in the presence of test antagonist at concentrations ranging from 0.08 to 5000 nM.

T1 sequence (P21453 whole entry): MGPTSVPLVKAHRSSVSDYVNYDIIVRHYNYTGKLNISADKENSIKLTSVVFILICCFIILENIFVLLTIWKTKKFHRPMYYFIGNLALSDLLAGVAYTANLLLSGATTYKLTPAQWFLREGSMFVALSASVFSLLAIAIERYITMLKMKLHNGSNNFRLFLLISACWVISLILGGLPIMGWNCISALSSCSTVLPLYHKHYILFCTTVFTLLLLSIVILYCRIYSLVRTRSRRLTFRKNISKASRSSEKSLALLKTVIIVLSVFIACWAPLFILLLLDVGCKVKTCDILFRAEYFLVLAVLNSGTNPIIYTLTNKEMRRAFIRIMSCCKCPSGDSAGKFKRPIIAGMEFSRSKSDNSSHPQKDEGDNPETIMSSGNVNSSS

Cc1nn(C(=O)CCc2ccc(CNCCC(=O)O)cc2)c2c1C1C(C2)C1(C)C (stereo not shown) [Compound 1, 3-({4-[3-oxo-3-(3,4,4-trimethyl-3b,4,4a,5-tetrahydro-1H-cyclopropa[3,4]cyclopenta[1,2-c]pyrazol-1-yl)propyl]benzyl}amino)propanoic acid]
EC50: 262 nM

— US9108993B2, “Pyrazole derivatives as sphingosine 1-phosphate (S1P) receptor modulators” (Allergan, Inc., priority 2013, dated 2015)
